In patent US7105679B2, “Heteroatom containing tetracyclic derivatives as selective estrogen receptor modulators” (priority 2001, dated 2006):
Where “and” joins values, the source holds several entries; their conditions need not be identical. Identical values can stand only once. Like-named read-outs stand apart in the source and are kept apart here.

Tests used:
[1] = target: T1, human estrogen receptor α (Homo sapiens, UniProt P03372); test: Estrogen Receptor α Flash Plate Assay (binding of radiolabeled estrogen)
T1 construct: purchased Panvera
T1 sequence (P03372 1-595): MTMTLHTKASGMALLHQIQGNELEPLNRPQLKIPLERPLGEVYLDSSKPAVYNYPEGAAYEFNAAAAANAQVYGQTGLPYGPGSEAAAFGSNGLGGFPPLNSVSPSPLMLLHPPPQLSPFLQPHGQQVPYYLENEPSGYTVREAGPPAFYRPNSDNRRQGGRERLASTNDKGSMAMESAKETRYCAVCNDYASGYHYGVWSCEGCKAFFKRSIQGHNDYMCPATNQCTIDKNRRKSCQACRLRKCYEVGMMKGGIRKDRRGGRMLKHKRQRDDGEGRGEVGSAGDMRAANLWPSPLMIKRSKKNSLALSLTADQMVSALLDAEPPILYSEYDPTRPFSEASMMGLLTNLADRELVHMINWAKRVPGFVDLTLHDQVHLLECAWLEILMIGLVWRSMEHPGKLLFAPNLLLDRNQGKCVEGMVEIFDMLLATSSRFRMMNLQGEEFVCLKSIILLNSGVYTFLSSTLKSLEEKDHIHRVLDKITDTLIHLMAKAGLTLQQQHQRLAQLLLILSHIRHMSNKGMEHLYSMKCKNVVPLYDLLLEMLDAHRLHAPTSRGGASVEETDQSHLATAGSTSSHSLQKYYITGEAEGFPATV
Description: This assay monitors binding of radiolabeled estrogen to the estrogen receptor. It is performed on a BioMek 2000 (Beckman). Plates are read in a scintillation counter (Packard TopCount), with decreased counts an indication of binding of a compound to the receptor.
The plate was sealed and incubated at 4° C. overnight.
On day two, each well was washed three times with 200 μL PBS, pH 7.2, at room temperature. To each well was then added 98 μL radiolabeled estrogen (0.5 nM, which equals 6 nCi for a 120 Ci/mmol batch, Amersham), diluted in ESB and 5 mM dithiothreitol (DTT). To individual wells were then added 2.5 μL test compound diluted in 30% (v/v) dimethyl sulfoxide/50 mM HEPES, pH 7.5. The wells were mixed three times by aspiration, the plate sealed and incubated at room temperature for one hour. The wells were then counted for 1 min in a TopCount scintillation counter (Packard).

[2] = test system: MCF-7 cells; test: MCF-7 Cell Proliferation Assay (14C-thymidine, agonist and antagonist mode); type: cell-based; details: number in brackets = number of tests, NA = no detected activity at test concentration; for EC50: MCF7, agonist mode
Description: This assay was run according to the procedure described by Welshons, et al., (Breast Cancer Res. Treat., 1987, 10(2), 169-75), with minor modification.
Briefly, MCF-7 cells (from Dr. C. Jordan, Northwestern University) were maintained in RPMI 1640 phenol red free medium (Gibco) in 10% FBS (Hyclone), supplemented with bovine insulin and non-essential amino acid (Sigma). The cells were initially treated with 4-hydoxyltamoxifen (10^−8 M) and let stand at 37° C. for 24 hours. Following this incubation with tamoxifen, the cells were treated with compounds at various concentrations.
Compounds to be tested in the agonist mode were added to the culture media at varying concentrations. Compounds to be treated in the antagonist mode were prepared similarly, and 10 nM 17β-estradiol was also added to the culture media. The cells were incubated for 24 hours at 37° C. Following this incubation, 0.1 μCi of ^14C-thymidine (56 mCi/mmol, Amersham) was added to the culture media and the cells were incubated for an additional 24 hours at 37° C. The cells were then washed twice with Hank's buffered salt solution (HBSS) (Gibco) and counted with a scintillation counter. The increase in the ^14C-thymidine in the compound treated cells relative to the vehicle control cells were reported as percent increase in cell proliferation.

[3] = test system: Ishikawa cells; test: Alkaline Phosphatase Assay in Human Endometrial Ishikawa Cells (agonist and antagonist mode); type: cell-based; details: number in brackets = number of tests, NA = no detected activity at test concentration; for IC50: antagonist mode with 10 nM 17β-estradiol; for EC50: agonist mode
Description: This assay was run according to the procedure described by Albert et a., Cancer Res, […], 50(11), 330-6-10, with minor modification.
Ishikawa cells (from ATCC) were maintained in DMEM/F12 (1:1) phenol red free medium (Gibco) supplemented with 10% calf serum (Hyclone). 24 hours prior to testing, the medium was changed to DMEM/F12 (1:1) phenol red free containing 2% calf serum.
Compounds to be tested in the agonist mode were added to the culture media at varying concentrations. Compounds to be treated in the antagonist mode were prepared similarly, and 10 nM 17β-estradiol was also added to the culture media. The cells were then incubated at 37° C. for 3 days. On the fourth day, the media was remove, 1 volume of 1× Dilution Buffer (Clontech) was added to the well followed by addition of 1 volume of Assay Buffer (Clontech). The cells were then incubated at room temperature for 5 minutes. […] The cells were incubated at room temperature for 10 minutes and then quantified on a luminometer. The increase of chemiluminescence over vehicle control was used to calculate the increase in alkaline phosphatase activity.

[4] = flash plate binding, 0.5 nM radiolabeled estrogen, number in brackets = No. of determinations, NA = no detected activity at test concentration, read-out: Estrogen Receptor α in μM (No.)
[5] = antagonist mode with 10 nM 17β-estradiol
[6] = Homo sapiens, MCF7, antagonist mode with 10 nM 17β-estradiol

Row | IC50 [1, 4] | IC50 [2, 5] | IC50 [3] | IC50 ([3]; Homo sapiens) | IC50 [2, 6] | EC50 ([2]; Homo sapiens) | EC50 ([3]; Homo sapiens) | IC50 [1] | Structure (SMILES)
1 | 0.18 µM | > 10000 nM | > 10000 nM |  |  |  |  |  | CN(C)CCOc1ccc(C2Oc3cc(O)ccc3C3=C2c2ccccc2OCC3)cc1 (single isomer, unassigned) [Compound 147]
2 | 0.015 µM | 1360 nM | 1020 nM |  |  |  |  |  | CN(C)CCOc1ccc(C2Oc3cc(O)ccc3C3=C2c2ccccc2OCC3)cc1 (single isomer, unassigned) [Compound 149]
3 | 0.0086 µM | 2610 nM | 324 nM |  |  |  |  |  | Oc1ccc2c(c1)OCCC1=C2C(c2ccc(OCCN3CCCCCC3)cc2)Oc2ccccc21 (single isomer, unassigned) [Compound 152]
4 | 0.0066 µM | 1270 nM | 509 nM |  |  |  |  |  | Oc1ccc2c(c1)OCCC1=C2C(c2ccc(OCCN3CCCCCC3)cc2)Oc2ccccc21 (single isomer, unassigned) [Compound 153]
5 | 0.0042 µM | 1440 nM | 167 nM |  |  |  |  |  | Oc1ccc2c(c1)OC(c1ccc(OCCN3CCCCCC3)cc1)C1=C2CCOc2ccccc21 (single isomer, unassigned) [Compound 154]
6 | 0.088 µM | > 10000 nM | 3770 nM |  |  |  |  |  | Oc1ccc2c(c1)OC(c1ccc(OCCN3CCCCCC3)cc1)C1=C2CCOc2ccccc21 (single isomer, unassigned) [Compound 155]
7 | 0.007 µM | 424 nM | 35 nM |  |  |  |  |  | CC(C)N(CCOc1ccc(C2Oc3cc(O)ccc3C3=C2c2ccc(O)cc2OCC3)cc1)C(C)C (single isomer, unassigned) [Compound 167]
8 | 0.0042 µM | 220 nM | 287 nM |  |  |  |  |  | CC(C)N(CCOc1ccc(C2Oc3cc(O)ccc3C3=C2c2ccc(O)cc2OCC3)cc1)C(C)C (single isomer, unassigned) [Compound 168]
9 | 0.14 µM | 5100 nM |  | 56.7 nM |  |  |  |  | CC(C)(C)C(=O)Oc1ccc2c(c1)OCC1=C2C(c2ccc(OCCN3CCCCC3)cc2)Oc2ccccc21 (single isomer, unassigned) [Compound 171, 2,2-Dimethyl-propionic acid 5S*-(+)-[4-(2-piperidin-1-yl-ethoxy)-phenyl]-5,11-dihydro-chromeno[4,3-c]chromen-2-yl ester]
10 | 0.26 µM | 2280 nM | 68.4 nM |  |  |  |  |  | CC(C)(C)C(=O)Oc1ccc2c(c1)OCC1=C2C(c2ccc(OCCN3CCCCC3)cc2)Oc2ccccc21 (single isomer, unassigned) [Compound 172, 2,2-Dimethyl-propionic acid 5R*-(−)-[4-(2-piperidin-1-yl-ethoxy)-phenyl]-5,11-dihydro-chromeno[4,3-c]chromen-2-yl ester]
11 | 0.17 µM |  |  | > 10000 nM | > 10000 nM |  |  |  | COc1ccc2c(c1)O[C@@H](c1ccc(OCCN3CCCCC3)cc1)C1=C2COc2cc(OC)ccc21 (single isomer, unassigned) [Compound 173, 5S*-(+)-1-{2-[4-(2,8-Dimethoxy-5,11-dihydro-chromeno[4,3-c]chromen-5-yl)-phenoxy]-ethyl}-piperidine]
12 | 0.66 µM |  |  | 300 nM | 5000 nM |  |  |  | COc1ccc2c(c1)OCC1=C2C(c2ccc(OCCN3CCCCC3)cc2)Oc2cc(OC(=O)C(C)(C)C)ccc21 (single isomer, unassigned) [Compound 175]
13 | 0.04 µM | 3000 nM | 259 nM |  |  |  |  |  | Oc1ccc2c(c1)OCCC1=C2C(c2ccc(OCCN3CCCCCC3)cc2)Oc2cc(F)ccc21 (single isomer, unassigned) [Compound 177]
14 | 0.0064 µM and 0.0076 µM | 1480 nM | 125 nM |  |  |  |  |  | Oc1ccc2c(c1)OCCC1=C2C(c2ccc(OCCN3CCCCCC3)cc2)Oc2cc(F)ccc21 (single isomer, unassigned) [Compound 178]
15 | 0.0011 µM |  |  | 34 nM | 1340 nM |  |  |  | COc1ccc2c(c1)OCC1=C2[C@H](c2ccc(OCCN3CCCCC3)cc2)Oc2cc(O)ccc21 (single isomer, unassigned) [Compound 181, 8-Methoxy-11S*(−)-[4-(2-piperidin-1-yl-ethoxy)-phenyl]-5,11-dihydro-chromeno[4,3-c]chromen-2-ol]
16 | 0.055 µM | > 1000 nM | 229 nM |  |  |  |  |  | COc1ccc2c(c1)OCCC1=C2C(c2ccc(OCCN3CCCCC3)cc2)Oc2cc(O)ccc21 (single isomer, unassigned) [Compound 196, 2-Methoxy-5S*-(−)-[4-(2-piperidin-1-yl-ethoxy)-phenyl]-11,12-dihydro-5H-6,13-dioxa-benzo[3,4]cyclohepta[1,2-a]naphthalen-8-ol]
17 | 3.45 µM |  |  | 53.5 nM | 662 nM | > 10000 nM | > 10000 nM |  | CC(C)(C)C(=O)Oc1ccc2c(c1)OC(c1ccc(OCCN3CCCCC3)cc1)C1=C2COc2cc(OC(=O)C(C)(C)C)ccc21 (stereo not shown) [Compound 22, 2,2-Dimethyl-propionic acid, 8-(2,2-dimethyl-propionyloxy)-5-[4-(2-piperidin-1-yl-ethoxy)-phenyl]-5,11-dihydro-chromeno[4,3-c]chromen-2-yl ester]
18 | 1.9 µM |  |  | 550 nM | > 10000 nM | > 10000 nM | > 10000 nM |  | CC(C)(C)C(=O)Oc1ccc2c(c1)OC(C)(c1ccc(OCCN3CCCCC3)cc1)C1=C2COc2cc(OC(=O)C(C)(C)C)ccc21 (stereo not shown) [Compound 41, 2,2-Dimethyl-propionic acid 8-(2,2-dimethyl-propionyloxy)-11-methyl-11-[4-(2-piperidin-1-yl-ethoxy)-phenyl]-5,11-dihydro-chromeno[4,3-c]chromen-2-yl ester]
19 |  |  |  | 135 nM | 1740 nM |  |  | 0.0015 µM and 0.0013 µM | Oc1ccc2c(c1)OCCC1=C2C(c2ccc(OCCN3CCCCCC3)cc2)Oc2cc(F)ccc21 (stereo not shown) [Compound 174, 5-[4-(2-Azepan-1-yl-ethoxy)-phenyl]-8-fluoro-11,12-dihydro-5H-6,13-dioxa-benzo[3,4]cyclohepta[1,2-a]naphthalen-2-ol]

Row | Structure (SMILES) | IC50 [1, 4] | IC50 [2, 5] | IC50 [3] | IC50 ([3]; Homo sapiens) | IC50 [2, 6] | EC50 ([2]; Homo sapiens) | EC50 ([3]; Homo sapiens) | IC50 [1]
20 | c1ccc2c(c1)OC(c1ccc(OCCN3CCCCC3)cc1)C1=C2COc2ccccc21 (single isomer, unassigned) [Compound 170, 5R*-(−)-1-{2-[4-(5,11-Dihydro-chromeno[4,3-c]chromen-5-yl)-phenoxy]-ethyl}-piperidine] | 0.16 µM | ≥ 10000 nM | 2660 nM |  |  |  |  | 
21 | c1ccc2c(c1)O[C@@H](c1ccc(OCCN3CCCCC3)cc1)C1=C2COc2ccccc21 (stereo in doubt) [Compound 169, 5S*-(+)-1-{2-[4-(5,11-Dihydro-chromeno[4,3-c]chromen-5-yl)-phenoxy]-ethyl}-piperidine] | 0.072 µM | ≥ 10000 nM | 830 nM |  |  |  |  | 
